Patent publication US11805778B2, “Composition including an antimicrobial boosting agent including an amphocarboxylate and methods of increasing the antimicrobial effectiveness of a composition” (KIMBERLY-CLARK WORLDWIDE, INC., priority 2018, dated 2023)

Tested on: B. cepacia (ATCC 25416)
Assay: Minimum Effective Concentration (MEC) Test Method
Format: cell-based, Burkholderia cepacia
Settings: for MEC of antimicrobial agent Lactic Acid (Purac FCC 88) / MEC of antimicrobial agent Caprylhydroxamic Acid (Zeastat) / MEC of antimicrobial agent Hydroxyacetophenone (SymSave H) / MEC of antimicrobial agent Sodium Benzoate: B. cepacia, 24 hours; for performance as antimicrobial boosting agent: summary in words of the MEC testing of Table 1
Method: Initial testing was conducted to screen a variety of surfactants in researching for potential antimicrobial boosting agents. The initial testing followed the methodology as described in the Minimum Effective Concentration (“MEC”) Test Method described in the Test Methods section herein. To summarize, the MEC testing paired a variety of potential antimicrobial boosting agents with a variety of known antimicrobial agents to determine the MEC of the respective antimicrobial agent that must be used to provide an effective antimicrobial result, as described in further detail in the Test Methods section. The more positive the boosting characteristics of an antimicrobial boosting agent, then the lower the MEC that would be required for the paired antimicrobial agent. It is to be noted that the molarities listed in Table 1 are approximate values that were calculated based on the estimated activities of the ingredients and the molecular weights of the active ingredients. In instances where an exact activity was not available for an ingredient blend, the ingredient blend activity was estimated as the average of the upper and lower limits of the specification provided by the manufacturer of such blend. In instances where an exact molecular weight could not be calculated (for example, in compounds derived from a natural oil like coconut oil), the molecular weight of the active was estimated based on a weighted average of the molecular weights of the constituent species.
The Minimum Effective Concentration Test Method discussed herein began by adding B. cepacia (ATCC 25416) culture at a final concentration of approximately 5×10^6 CFU/mL to the composition to be challenged. The challenged composition was then allowed to incubate at room temperature for 24 hours. After 24 hours, a preservative neutralizing broth was added to the mixture and measurements were subsequently taken to determine the concentration of B. cepacia still remaining after exposure to the test composition.
The Minimum Effective Concentration was determined by completing the process described above on a series of compositions with the same concentration of antimicrobial boosting agent, but with different concentrations of antimicrobial agent. The Minimum Effective Concentration of antimicrobial agent for any given value of antimicrobial boosting agent was defined as the minimum concentration of antimicrobial agent required to reduce the concentration of B. cepacia to a level below the detection threshold for the test method, which was approximately 100 CFU/mL. In instances where multiple rounds of Minimum Effective Concentration testing were completed, the value reported is the mean of the Minimum Effective Concentration values generated by each individual series of tests.

[1] = paired with the labelled potential boosting agent at 5 mmol/L
[2] = no antimicrobial boosting agent

Compound | MEC of antimicrobial agent Lactic Acid (Purac FCC 88) [1] | performance as antimicrobial boosting agent | other results
Disodium PEG-12 Dimethicone Sulfosuccinate [Mackanate Ultra Si] | 40 mmol/L | – | –
PEG-80 Sorbitan Laurate [Alkamuls PSML-80/72LD] | 50 mmol/L | – | –
CCCCCCCCCCCCCCCC[N+](C)(C)CC(=O)[O-] [Mackam CET, Cetyl Betaine] | 40 mmol/L | – | –
CCCCCCCC[N+](C)(C)CC(=O)[O-] [Mackam BW-139, Octyl Betaine] | 40 mmol/L | – | –
Laureth-3 Phosphate [Dermalcare MAP L-130] | 40 mmol/L | – | –
Sodium Laurylglucosides Hydroxypropylsulfonate [Suga Nate 160] | >50 mmol/L | – | –
Sodium Cocoyl Isethionate [Hostapon SCI 85 P] | 50 mmol/L | did not perform well as antimicrobial boosting agents | –
sodium cocoamphoacetate | – | provided at least some antimicrobial boosting effect | –
Sodium Lauroamphoacetate [Sopalteric SLA-32] | 20 mmol/L | provided at least some antimicrobial boosting effect | –
Polysorbate 20 [Eumulgin SML-20] | 50 mmol/L | did not perform well as antimicrobial boosting agents | MEC of antimicrobial agent Caprylhydroxamic Acid (Zeastat) [1]: 10 mmol/L; MEC of antimicrobial agent Hydroxyacetophenone (SymSave H) [1]: >20 mmol/L; MEC of antimicrobial agent Sodium Benzoate [1]: 5 mmol/L
C[N+](C)(CCO)CC(O)C[N+](C)(C)CCO.[Cl-].[Cl-] [Cola Moist 200, Hydroxypropyl Bis-Hydroxyethyldimonium Chloride] | 50 mmol/L | – | –
Disodium Capryloamphodiacetate [Sopalteric DSCYA-27] | 30 mmol/L | provided at least some antimicrobial boosting effect | –
CCCCCCCCCCCC(=O)OC(C)C(=O)OC(C)C(=O)[O-].[Na+] (centres unmarked) [Dermosoft SLL, Sodium Lauroyl Lactylate] | 30 mmol/L | – | –
CC(O)C(=O)O (centres unmarked) [Purac FCC 88, Lactic Acid] | – | – | MEC of antimicrobial agent Lactic Acid (Purac FCC 88) [2]: 60 mmol/L
CCCCCCCC[N+](C)(C)[O-] [Techmine 280, Octyldimethylamine Oxide] | 40 mmol/L | – | –
Cocamidopropyl Betaine [Dehyton PK-45] | – | – | MEC of antimicrobial agent Sodium Benzoate [1]: >15 mmol/L
Cocamide DIPA [Cola Liquid DC] | Unstable | did not perform well as antimicrobial boosting agents | MEC of antimicrobial agent Hydroxyacetophenone (SymSave H) [1]: 20 mmol/L
Sodium Methyl Cocoyl Taurate [Hostapon CT Paste] | – | – | MEC of antimicrobial agent Sodium Benzoate [1]: 2.5 mmol/L
Sodium Cocoamphopropionate [Rewoteric AM KSF 40] | <10 mmol/L | – | MEC of antimicrobial agent Caprylhydroxamic Acid (Zeastat) [1]: 4 mmol/L; MEC of antimicrobial agent Hydroxyacetophenone (SymSave H) [1]: 10 mmol/L; MEC of antimicrobial agent Sodium Benzoate [1]: 1.8 mmol/L
Disodium Cocoamphodiacetate [Mackam 2C-75] | 30 mmol/L | provided at least some antimicrobial boosting effect | MEC of antimicrobial agent Caprylhydroxamic Acid (Zeastat) [1]: 4 mmol/L; MEC of antimicrobial agent Hydroxyacetophenone (SymSave H) [1]: 10 mmol/L; MEC of antimicrobial agent Sodium Benzoate [1]: 2.5 mmol/L
PEG-40 Hydrogenated Castor Oil [Tagat CH40] | >60 mmol/L | did not perform well as antimicrobial boosting agents | MEC of antimicrobial agent Caprylhydroxamic Acid (Zeastat) [1]: 10 mmol/L; MEC of antimicrobial agent Hydroxyacetophenone (SymSave H) [1]: >20 mmol/L
sodium cocoamphodipropionate | – | provided at least some antimicrobial boosting effect | –
O=C([O-])c1ccccc1.[Na+] [Sodium Benzoate] | – | – | MEC of antimicrobial agent Sodium Benzoate [2]: 7.5 mmol/L
Coco-Glucoside [Plantacare 818 UP] | >60 mmol/L | did not perform well as antimicrobial boosting agents | –
Disodium Cocoamphodipropionate [Mackam 2CSF-40CG] | <10 mmol/L | provided at least some antimicrobial boosting effect | MEC of antimicrobial agent Caprylhydroxamic Acid (Zeastat) [1]: 6 mmol/L; MEC of antimicrobial agent Hydroxyacetophenone (SymSave H) [1]: 10 mmol/L; MEC of antimicrobial agent Sodium Benzoate [1]: 2.5 mmol/L
Sodium Cocoamphoacetate [Mackam HPC-32L] | 40 mmol/L | – | –
Sodium Cocoamphoacetate [ColaTeric 1C] | 30 mmol/L | – | MEC of antimicrobial agent Hydroxyacetophenone (SymSave H) [1]: 15 mmol/L
Lauryl Glucoside [Plantaren 1200 N UP] | >30 mmol/L | – | MEC of antimicrobial agent Sodium Benzoate [1]: 10 mmol/L
CCCCCCCC(=O)NO [Zeastat, Caprylhydroxamic Acid] | – | – | MEC of antimicrobial agent Caprylhydroxamic Acid (Zeastat) [2]: 10 mmol/L
Caprylyl/Capryl Glucoside [Plantaren 810 UP] | 60 mmol/L | – | –
